Assay results published in patent publication US5254549A, “New BHT ether compounds and their use as hypolipidemic and antiatherosclerotic drugs” (Merz & Co. GmbH & Co., priority 1991, dated 1993).
Like-named read-outs stand apart in the source and are kept apart here.

How the values were obtained:
[1] = system: Smooth muscle cells from the aorta of balloon-catheterized rats; assay: Antiproliferative effect on smooth muscle cells in vitro; format: cell-based; conditions: Rattus norvegicus, 72 h; 5×10^-5 M, 3 days, versus vehicle-treated control; read-out: Mean change (Δ mean reduction) of the number of smooth vascular muscle cells
Experimental: Smooth muscle cells, obtained after isolation from the aorta of balloon-catheterized rats, were cultivated in DMEM under addition of 10% of fetal calf serum and subject to passages.
For the assay 10,000 cells of one passage were inoculated per dish and incubated for 3 days with vehicle (namely DMSO, 0.5% final concentration) or test compound (5×10^-5 M) 4 h after innoculation. After 3 days a cell count was made. Six preparations-Were tested per test compound.
Table 5: Mean change (Δ mean reduction) in percent of the number of smooth vascular muscle cells after incubation with test substance for 3 days as compared to vehicle-treated control preparation.

[2] = system: Human endothelial cells of the umbilical vein; assay: Endothelial protection against cytotoxic effects of oxidized LDL; format: cell-based; conditions: 2×10^-5 M, 24 h at 37° C., LDL 200 μg/ml; for Mean change (Δ mean reduction) of the concentration of TBA-reactive material after incubation of endothelial cells with LDL: versus control preparation 1 (vehicle + LDL), 20 µM; for viability at 20 µM: Homo sapiens, Endothelial cell, control preparation 2 without LDL = 100%, read-out: Mean number of endothelial cells after incubation with LDL as compared to control preparation 2
Experimental: Human endothelial cells of the umbilical vein were isolated after collagenase vascular treatment and cultured.
For the assay the cells were dispersed in a density of 50,000 per dish and cultivated for 4 days with Ham's F 12/DMEM medium (ratio: 4:1) under addition of 15% fetal calf serum, 5% horse serum and 10 ng/ml ECGF heparin.
After 4 days the cells were washed with serum-free medium and used in the cytotox assay.
For this assay the cells were incubated f or 24 h at 37° C. in 1 ml of Ham's F 10 medium (+ECGF heparin) with LDL (200 μg/ml). During this time period either the vehicle, namely, ethanol, 0.5% final concentration (control preparation 1) or the test substance (2×10^-5 M) was present. In parallel, one preparation was incubated without LDL and without any other substance and with vehicle (0.5% ethanol) to assess the maximum proliferation rate (control preparation 2).
After 24 h the resultant TBA-reactive material was determined in the medium or the number of cells counted.
(§1) Three preparations were tested per test compound.
Table 4a represents the mean changes in percent versus appropriate control preparation 1.
Table 4a: Mean change (Δ mean reduction) in percent of the concentration of TBA-reactive material after incubation of endothelial cells for 24 h with LDL versus appropriate control preparation 1.
Table 4b: Mean number of cells in percent after 24-h incubation with LDL as compared to appropriate control preparation 2.

[3] = system: triglycerides; assay: Lipid-lowering properties in fasting normolipidemic rats (serum triglycerides, GPO-PAP method); format: in vivo; conditions: rat, single oral dose 0.2 mmol/kg, read-out: Mean change (Δ mean reduction) of triglyceride concentrations versus vehicle-treated control
Experimental: The lipid-lowering properties of the compounds according to the invention were investigated in a rat model. In this model a single dose (0.2 mmol/kg) of the test substance was administered to fasting normolipidemic rats by the oral route. 240 and 360 minutes after application, blood samples were taken, the concentrations of triglycerides being assessed by a standard method (namely GPO-PAP method, E. Merck-system, Darrdstadt, Germany) (n=5 rats per measurement time).
In Table 2 the mean changes are given in percent as compared to a solvent (cremophor, 30% in aqua dest) control.
Table 2: Mean changes (Δ mean reduction) in percent of triglyceride concentrations 240 and 360 minutes after a single application versus vehicle-treated control.

[4] = system: human LDL; assay: LDL assay of antioxidant properties (TBA-reactive material); format: biochemical; conditions: 5×10^-5 M, 24 h, 10 μM Cu^2+, versus vehicle-treated control; 50 µM
Experimental: (§2) The antioxidant properties of the compounds according to the invention were studied in in-vitro tests. In these tests the substance was incubated with the substrate to be oxidized (synthetic triglyceride with unsaturated fatty acids, i.e., trilinolenine or human LDL). After the incubation period, the degree of oxidation was determined using the so called thiobarbituric acid (TBA) assay. TBA reacts with malondialdehyde (MDA), which is one of the essential oxidation products. The reaction product was assayed photometrically.
LDL (d=1.019-1.063) was obtained from human plasma by ultracentifugation under addition of EDTA.
100 μg of LDL was incubated with 0. 5 ml of HAM F 10 medium for 24 h at […] with vehicle (namely ethanol, 0. 5% final concentration) or test substance (concentration: 5×10^-5 M) in the presence of 10 μM of Cu^2+.
The total TBA-reactive material was determined in accordance with the trilinolenine assay.
as §1
(§3) Tables 3a (trilinolenine assay) and 3b (LDL assay) represent the mean changes in percent as compared to solvent control.
(§4) Table 3: mean change (Δ mean reduction) in percent of the concentration of TBA-reactive material after 3-h (a: trilinolenine assay) and 24-h (b: LDL assay) incubation versus vehicle-treated control preparation.

[5] = Trilinolenine assay of antioxidant properties (TBA-reactive material); format: biochemical; conditions: 5×10^-5 M, 3 h at 37° C., versus vehicle-treated control; 50 µM
Experimental: as §2
400 μl of trilinolenine was incubated for 3 h at 37° C. with 2 ml HAM F 10 medium with vehicle (namely, ethanol, 0.5% final concentration) or test substance (concentration: 5×10^-5 M) (oxidation is effected without special catalysts).
The total TBA-reactive material was determined in 1 ml of the incubate by adding 1.5 ml of 0.67% TBA solution to 0.05 N NAOH and 1.5 ml to a 20% trichloroacetic acid solution. The mixture was reacted for 60 min. on a boiling water bath. After cooling, absorption was determined at 532 nm.
as §1, §3, §4

[6] = Kinetics of nicotinic acid released from the compounds in fasting normolipidemic rats (GC/MS in serum); format: in vivo, rat; conditions: general statement
Experimental: The kinetics of nicotinic acid released from the compounds under investigation was studied in the rat. A single dose (0.2 mmol/kg) of the test substance was administered to fasting normolipidemic rats by gavage. 240 and 360 minutes thereafter, blood samples were taken and the concentration of nicotinic acid in serum was determined using a GC/MS method (n=5 rats per time). Table 1: Concentration of nicotinic acid (mg/1) in pooled serum samples after a single application of drug.

| Compound | inhibition at 50 µM [1] [%] | Mean change (Δ mean reduction) of the concentration of TBA-reactive material after incubation of endothelial cells with LDL [2] [%] | viability at 20 µM [2] [%] | inhibition in vivo at 200 µmol/kg ([3]; 4 h, Time 240') [%] | inhibition in vivo at 200 µmol/kg ([3]; 6 h, Time 360') [%] | Mean change (Δ mean reduction) of the concentration of TBA-reactive material, LDL assay [4] [%] | Mean change (Δ mean reduction) of the concentration of TBA-reactive material, trilinolenine assay [5] [%] | levels of nicotinic acid (in words) [6] |
| --- | --- | --- | --- | --- | --- | --- | --- | --- |
| CC(C)(C)c1cc(CCCOCc2cccnc2)cc(C(C)(C)C)c1O [3/124, 2,6-Di-tert-butyl-4-(5-(3-pyridyl)-4-oxapentyl]phenol] | 71 | 57 | 118 | 73 | 76 | 90 | 76 |  |
| CC(C)(C)c1cc(COCc2cccnc2)cc(C(C)(C)C)c1O [3/156] |  |  |  |  |  |  |  | excessively high levels of nicotinic acid |
| CC(C)(C)c1cc(COCCCCCCc2cccnc2)cc(C(C)(C)C)c1O [3/161, 2,6-Di-tert-butyl-4-[8-(3-pyridyl)-2-oxaoctyl]phenol] | 98 | 64 | 107 | 60 | 67 | 79 | 58 |  |
| CC(C)(C)c1cc(COCCCCC#Cc2cccnc2)cc(C(C)(C)C)c1O [3/179, 2,6-Di-tert-butyl-4-[8-(3-pyridyl)-2-oxaoct-7-ynyl]phenol] | 55 | 43 | 76 | 57 | 70 | 73 | 79 |  |
| CC(C)(C)c1cc(COCCCC/C=C\c2cccnc2)cc(C(C)(C)C)c1O [3/181, (Z)-2,6-Di-tert-butyl-4-(8-(3-pyridyl)-2-oxaoct-7-enyl]-phenol] | 81 | 65 | 122 | 57 | 57 | 76 | 76 |  |
| CC(C)(C)c1cc(COCCCCc2cccnc2)cc(C(C)(C)C)c1O [3/187, 2,6-Di-tert-butyl-4-[6-(3-pyridyl)-2-oxahexyl]phenol] | 93 | 53 | 80 | 65 | 55 | 82 | 71 |  |
| CC(C)(C)c1cc(COCCCCCCCc2cccnc2)cc(C(C)(C)C)c1O [3/188, 2,6-Di-tert-butyl-4-[9-(3-pyridyl)-2-oxanonyl]phenol] | 63 | 54 | 79 | 53 | 40 | 71 | 66 |  |
| CC(C)(C)c1cc(CCCOCCCc2cccnc2)cc(C(C)(C)C)c1O [3/190, 2,6-Di-tert-butyl-4-[7-(3-pyridyl)-4-oxaheptyl]phenol] | 91 | 36 | 65 | 56 | 28 | 89 | 72 |  |
| CC(C)(C)c1cc(CCCOCCCCCc2cccnc2)cc(C(C)(C)C)c1O [3/191, 2,6-Di-tert-butyl-4-[9-(3-pyridyl)-4-oxanonyl)phenol] | 79 | 33 | 63 | 37 | 32 | 86 | 76 |  |
| CC(C)(C)c1cc(COCCCCCc2cccnc2)cc(C(C)(C)C)c1O [3/192, 2,6-Di-tert-butyl-4-[7-(3-pyridyl)-2-oxaheptyl]phenol] | 95 | 47 | 79 | 44 | 53 | 86 | 74 |  |
